Publication PMC7534598 (iScience, 2020)

Columns and labels:
[1] = target: T1, furin (Homo sapiens, UniProt P09958); experiment: enzyme inhibition at a single concentration of […]; type: biochemical; conditions: read-out: % inhibition at 100 μM
[2] = target: T1, furin; type: biochemical

T1 sequence (P09958 108-794): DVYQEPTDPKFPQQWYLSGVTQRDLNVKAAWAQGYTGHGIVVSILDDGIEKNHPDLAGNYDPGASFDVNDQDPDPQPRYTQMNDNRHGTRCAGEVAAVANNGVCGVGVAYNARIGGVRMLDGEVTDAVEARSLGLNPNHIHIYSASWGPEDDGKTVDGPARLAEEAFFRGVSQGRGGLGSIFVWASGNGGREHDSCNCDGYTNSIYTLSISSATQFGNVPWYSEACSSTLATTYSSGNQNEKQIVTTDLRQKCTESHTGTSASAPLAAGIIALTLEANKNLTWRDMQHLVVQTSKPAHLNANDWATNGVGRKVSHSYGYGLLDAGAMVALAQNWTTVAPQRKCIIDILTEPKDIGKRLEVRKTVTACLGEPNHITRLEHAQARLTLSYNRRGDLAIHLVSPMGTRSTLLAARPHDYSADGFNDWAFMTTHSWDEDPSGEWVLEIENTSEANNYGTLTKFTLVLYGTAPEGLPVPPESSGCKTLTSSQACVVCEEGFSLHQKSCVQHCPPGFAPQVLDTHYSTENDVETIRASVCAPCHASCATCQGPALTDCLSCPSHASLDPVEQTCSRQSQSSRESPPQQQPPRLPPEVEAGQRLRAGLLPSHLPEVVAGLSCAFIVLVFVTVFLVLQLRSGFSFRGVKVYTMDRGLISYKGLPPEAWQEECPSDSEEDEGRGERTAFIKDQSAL

## Nc1nc(N)c2nc(CNc3ccc(C(=O)N[C@@H](CCC(=O)O)C(=O)O)cc3)cnc2n1 [aminopterin]
[1]
  inhibition at 100 µM: > 70%

## N=C(N)c1ccc(/N=N/Nc2ccc(C(=N)N)cc2)cc1 [diminazene]
[2]
  IC50: 5.42 ± 0.11 µM

## CN(Cc1cnc2nc(N)nc(N)c2n1)c1ccc(C(=O)N[C@@H](CCC(=O)O)C(=O)O)cc1 [methotrexate]
[1]
  inhibition at 100 µM: > 70%

## COc1cc(C2Oc3cc([C@H]4Oc5cc(O)cc(O)c5C(=O)[C@@H]4O)ccc3OC2CO)ccc1O (stereo partly shown) [silybin]
[1]
  inhibition at 100 µM: > 70%
